In US10632119B2, “Fused bicyclic 2,4-diaminopyrimidine derivative as a dual ALK and FAK inhibitor” (priority 2012, dated 2020):

Columns and labels:
[1] = Protein binding, human; assay type: in vitro ADME; settings: human (H)
[2] = In vitro metabolic stability, monkey; assay type: in vitro ADME; settings: monkey (Mo); read-out: In vitro metabolic stability t1/2
[3] = target: DA transporter (Homo sapiens, UniProt Q01959); test: Receptor selectivity (Cerep); assay type: binding
[4] = target: Neurokinin NK1 (Homo sapiens, UniProt P25103); test: Receptor selectivity (Cerep); assay type: binding
Sequence of Neurokinin NK1 (P25103 whole entry): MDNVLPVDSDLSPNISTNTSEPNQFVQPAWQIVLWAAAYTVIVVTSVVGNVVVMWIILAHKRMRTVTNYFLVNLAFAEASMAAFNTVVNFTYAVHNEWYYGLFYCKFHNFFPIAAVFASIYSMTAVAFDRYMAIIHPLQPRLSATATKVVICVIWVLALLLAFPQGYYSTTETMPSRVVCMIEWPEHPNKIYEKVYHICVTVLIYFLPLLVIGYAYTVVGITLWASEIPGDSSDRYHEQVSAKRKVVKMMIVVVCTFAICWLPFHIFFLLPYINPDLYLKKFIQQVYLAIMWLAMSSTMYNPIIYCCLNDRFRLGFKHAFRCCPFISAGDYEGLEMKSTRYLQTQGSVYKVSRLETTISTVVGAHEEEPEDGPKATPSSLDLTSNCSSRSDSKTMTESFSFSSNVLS

[5] = 4-week oral toxicity and toxicokinetic study of CEP-37440 in monkeys, 4-week recovery; assay type: in vivo, cynomolgus monkeys (Macaca fascicularis)
Procedure: Male and female cynomolgus monkeys (Macaca fascicularis) were assigned to 4 groups (3-treated and a vehicle control group) consisting of 5 monkeys/sex/group. Dose levels evaluated in this study were 0 (pH-adjusted reverse osmosis water), 2.5, 7.5, and 20 mg/kg/day. The dosing volume was 5 mL/kg. CEP-37440 was administered as the trihydrochloride dihydrate salt form. After completion of the dosing phase, 3 monkeys/sex/group were euthanized and 2 monkeys/sex/group continued on a treatment-free recovery phase for an additional 4 weeks.

Sequence of DA transporter (Q01959 whole entry, species assumed): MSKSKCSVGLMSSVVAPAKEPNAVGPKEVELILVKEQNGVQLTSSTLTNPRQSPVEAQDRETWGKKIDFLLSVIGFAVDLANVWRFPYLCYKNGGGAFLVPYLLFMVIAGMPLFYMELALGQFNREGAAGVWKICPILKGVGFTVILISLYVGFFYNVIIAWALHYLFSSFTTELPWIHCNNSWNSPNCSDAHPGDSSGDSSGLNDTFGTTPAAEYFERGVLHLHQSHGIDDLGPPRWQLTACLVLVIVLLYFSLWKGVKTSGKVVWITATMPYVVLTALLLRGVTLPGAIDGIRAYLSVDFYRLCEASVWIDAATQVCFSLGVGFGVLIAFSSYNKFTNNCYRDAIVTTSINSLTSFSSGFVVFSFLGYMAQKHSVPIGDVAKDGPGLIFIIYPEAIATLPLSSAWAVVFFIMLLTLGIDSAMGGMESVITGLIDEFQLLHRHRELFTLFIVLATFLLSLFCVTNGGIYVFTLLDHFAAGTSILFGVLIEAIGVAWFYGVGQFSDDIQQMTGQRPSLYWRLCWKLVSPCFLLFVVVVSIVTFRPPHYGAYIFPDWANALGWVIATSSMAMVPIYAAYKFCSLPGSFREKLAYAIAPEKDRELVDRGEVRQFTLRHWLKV

In the case of `CNC(=O)c1ccccc1Nc1nc(Nc2ccc3c(c2OC)CCC[C@H](N2CCN(CCO)CC2)C3)ncc1Cl` [CEP-37440, 2-[[5-chloro-2-[[(6S)-6-[4-(2-hydroxyethyl)piperazin-1-yl]-1-methoxy-6,7,8,9-tetrahydro-5H-benzo[7]annulen-2-yl]amino]pyrimidin-4-yl]amino]-N-methyl-benzamide], the Protein binding [1] is reported as 95 % bound, the half-life [2] is reported as 21 min and the Ki [3] is reported as 2.1 µM. The Ki [4] was 1.2 µM, the survival ([5]; 2.5, 7.5, 20 mg/kg/day, 4 weeks) was “All animals survived until their scheduled sacrifice” and the ECG ([5]; 2.5, 7.5, 20.0 mg/kg/day, Days 3 and 27 of dosing, Day 28 of recovery) was “No drug-related changes in PR interval, QRS duration, QT interval, corrected QT (QTc) interval, RR interval, or heart rate”. For the same compound, the body weight ([5]; dosing or recovery phase) was “no drug-related effects on body weight or body weight gain”, the “doses well tolerated, no drug-related effects” value ([5]; oral, 28 consecutive days) was “up to 20 mg/kg/day” and the “clinical pathology test results” value ([5]; up to 20.0 mg/kg/day) was “had no effect on clinical pathology test results”. For the same compound, the pulmonary edema ([5]; up to 20 mg/kg/day, 28 days) was “no evidence whatsoever of pulmonary edema”.
